Laboratory results from ChEMBL document CHEMBL1133348, “Quinonic derivatives active against a virulent strain of Toxoplasma gondii. Synthesis of 2-methylfuro[2,3-g]- and [3,2-g]isoquinolinetriones” (2000).

Tested on: THP-1
Test: Percentage growth inhibition of Toxoplasma gondii at concentration of 2 ug/mL using an human myelomonocytic cell line THP-1
Type: functional
Settings: read-out: GI

SMILES	inhibition of growth at 2 µg/mL [%]
Cc1cnc2c(c1)C(=O)c1c(oc(C)c1C)C2=O	96.5
Cc1cc2c(o1)C(=O)c1cc(O)ncc1C2=O	92
Cc1cc2c(o1)C(=O)C=C(Br)C2=O	83
Cc1c2c(cc(=O)n1C)C(=O)c1ccccc1C2=O	56
CCOc1cnc2c(c1C)C(=O)c1oc(C)c(C)c1C2=O	89.5
Cc1cc2c(o1)C(=O)c1cnc(O)cc1C2=O	62
O=C1c2ccccc2C(=O)c2cc(O)ncc21	80
Cn1cc2c(cc1=O)C(=O)c1ccccc1C2=O	52
Cc1nc(O)cc2c1C(=O)c1cccc(O)c1C2=O	50
O=C1c2cc(O)ncc2C(=O)c2c(O)cccc21	54
O=C1C=C(Br)C(=O)c2ccccc21 [2-Bromo-1,4-naphthoquinone]	66
O=C1C(O)=C([C@H]2CC[C@H](c3ccc(Cl)cc3)CC2)C(=O)c2ccccc21 [ATOVAQUONE]	95
CCC[C@@H]1C[C@@H](C(=O)N[C@@H]([C@H]2O[C@H](SC)[C@H](O)[C@@H](O)[C@H]2O)[C@H](C)Cl)N(C)C1 [CLINDAMYCIN]	86
CCc1nc(N)nc(N)c1-c1ccc(Cl)cc1 [PYRIMETHAMINE]	94
Nc1ccc(S(=O)(=O)Nc2ncccn2)cc1 [SULFADIAZINE]	90
